Test results from patent US9126993B2, “Glucosylceramide synthase inhibitors” (GENZYME CORPORATION, priority 2011, dated 2015).
“Also recorded” adds a separate entry of the source.

Columns and labels:
[1] = system: K14 mice; test: Brain GluCer and GluSph levels in K14 mouse model of type 2 Gaucher disease; format: in vivo
Procedure: Newborn mice received daily 5 mg/kg intraperitoneal injections of Quinuclidin-3-yl(2-(4′-fluoro-[1, l′-biphenyl]-3-yl)propan-2-yl)carbamate (hereinafter “GZ 161”) in a volume of 10 μl/gram of body weight starting at postnatal day 4. K14 mice and wild type littermates were humanely sacrificed at postnatal day 10 (pre-symptomatic) and at day 14 (humane endpoint) to evaluate glycosphingolipid (GSL) levels. Mice received a 150 mg/kg dose of pentobarbital (Euthasol, Virbac Inc, Fort Worth, Tex.) and were transcardially perfused with cold 0.9% NaCl solution. Brains were dissected and divided; one hemisphere was used for GSL analysis and the other was fixed in 4% paraformaldehyde for 96 hours and processed for histology.
Quantitative sphingolipid analysis was performed by liquid chromatography and tandem mass spectrometry (LC/MS/MS) as previously described in Merrill et al., Methods 36: 207-224 (2005). Briefly, 10 μl of brain tissue homogenate (tissue weight/water:100 mg/ml) was extracted with 1.00 ml of an organic solvent mixture (97% acetonitrile, 2% methanol, and 1% acetic acid, v/v) and vortexed vigorously for 10 min. Extracted sphingolipids (GluCer and GluSph) were directly separated by hydrophilic liquid chromatography (Atlantis HILIC column, Waters Corp.) and analyzed by triple quadrupole tandem mass spectrometry (API 4000, Applied Biosystems/MDS SCIEX) and compared with sphingolipid standards (Matreya, LLC; Pleasant Gap, Pa.)

[2] = system: Fabry mice; test: Substrate reduction therapy in Fabry mouse model: Gb3 and lyso-Gb3 levels; format: in vivo; details: male and female Fabry mice treated 4 months from ~8 months old; GZ 452 60 and 120 mg/kg/day, GZ 161 20 mg/kg/day
Procedure: In the following experiments, mice dosed with GCS inhibitors at either ˜60 mg/kg/day of (S)-Quinuclidin-3-yl(2-(2-(4-fluorophenyl)thiazol-4-yl)propan-2-yl)carbamate (S)-2-hydroxysuccinate salt (hereinafter “GZ 452”) or ˜300 mg/kg/day of (1R,2R)-Octanoic acid[2-(2′,3′-dihydro-benzo[1,4] dioxin-6′-yl)-2-hydroxy-1-pyrrolidin-1-ylmethyl-ethyl]-amide-L-tartaric acid salt (hereinafter “GZ 638”) as a component of the pelleted food diet provided ad libitum. Lipid analysis was by ESI/MS as described in Marshall et al., PLoS ONE 5:e15033 (2010). As discussed in further detail below, treatment started when the mice were 3, 8 or 12 months of age to test the efficacy at different disease severities. Blood and urine was collected monthly and periodic tissue harvests provided materials to evaluate efficacy of the therapy (Gb3 and lyso-Gb3 levels). […] As further discussed below, the efficacy of SMT was affected by the age of the mice at the start of treatment. Generally, the older the mouse, the higher the levels of Gb3 stored and thus a longer period of treatment was required in order to affect similar therapeutic benefit (see FIG. 4). The experiments and results are described further below.
In this experiment, Fabry mice were treated with GCS inhibitors in their diet for 4 months starting at 8 months old. […] Age-matched wild-type levels (WT) are also shown. […]

[3] = system: K14 mice; test: Brain histopathology (CD68, F4/80, GFAP staining) in K14 mice; format: in vivo, mouse; details: daily IP from P4, staining at P10, vs vehicle
Procedure: After genotype confirmation, animals were humanely sacrificed at 10 days of age, At this age K14 mice are asymptomatic. Mice received an intraperitoneal injection of 150 mg/kg sodium pentobarbital ((Euthasol, Virbac Inc, Fort Worth, Tex.) and were perfused by an intracardial infusion of chilled 0.9% sodium chloride. Brains were removed and post fixed in 4% paraformaldehyde for 72 hours. Tissue was transferred to PBS and paraffin embedded. Sagital sections 5 μm thick were cut and stained as described below. Gliosis and the presence of cells of the macrophage lineage were evaluated by means of glial fibrillary acidic protein staining and expression of CD68 and F4/80 pan-macrophage markers using the Leica Bond Max Immunostainer system (Leica Microsystems, Wetzlar, Germany).
GFAP staining: Paraffin sections were placed on mounting slides and processed using the Bond Polymer Refine IHC system (Leica Microsystems, Wetlzar, Germany) blocked for 10 minutes in serum-free protein block (Dako systems, Glostrup, Denmark), incubated for 30 minutes in a 1:1500 dilution of primary anti-GFAP antibody in Dako antibody diluent (Dako, Glostrup, Denmark), and stained using the Bond Polymer Refine detection kit (Leica Microsystems, Wetzlar, Germany). […]
For each staining technique exposure-matched digital images were obtained from similar brain regions of each experimental group using the Aperio ScanScope XT system (Aperio Technologies, Vista, Calif.). Stained slides were digitalized in high resolution and six areas of interest were highlighted in each slide and analyzed independently by histomorphometry. Positively stained area and nuclei were determined and quantitative data were analyzed by a one-way analysis of variance followed by Tukey's multiple comparison test using the Graph Pad Prism V 4.0 (GraphPad Software, San Diego, Calif.). […]

[4] = K14 mice, 5 mg/kg IP daily from P4, brains analyzed at P10
[5] = daily IP, compared to vehicle-treated K14 mice at the humane endpoint (14-15 days of age)

## CC(C)(NC(=O)OC1CN2CCC1CC2)c1cccc(-c2ccc(F)cc2)c1 (stereo not shown) [GZ 161, Quinuclidin-3-yl(2-(4′-fluoro-[1,1′-biphenyl]-3-yl)propan-2-yl)carbamate]
[1]; [4]
  brain GluCer level reduction: ~70%
  brain GluSph level reduction: ~60%
[1]; [5]
  brain GluCer level reduction: > 60%
  brain GluSph level reduction: > 60%
[1]; daily IP, time point of brain analysis
  symptom status of treated K14 mice: asymptomatic
[1]; inferred from reduction of brain glycosphingolipids after systemic (IP) administration
  crossing the blood brain barrier: capable of crossing the blood brain barrier
[2]
  Gb3 in kidney tissue relative to untreated controls: significantly reduced the amount of Gb3
[3]
  CD68+ cells in brain (hippocampus, thalamus, brainstem, cerebellum): reduces the numbers of CD68+ cells in all of these locations; also recorded: significant reductions the CD68+ cells in all brain regions
  F4/80+ cells in brain: reduced the numbers of F4/80+ cells in the thalamus and brainstem, but had marginal effects in other brain regions; also recorded: significant reductions the F4/80+ cells in the thalamus and brainstem
  GFAP staining (gliosis) in brain: decreased GFAP staining in the hippocampus and cerebellum; also recorded: significant reductions the GFAP+ cells in the hippocampus and cerebellum
